Assay: xn = mol fraction of the nth substance listed
Settings: 100 kPa, Liquid; for viscosity: Capillary tube (Ostwald / Ubbelohde) method

CCCCCCCO [heptan-1-ol] + CCO
Settings	mass density, 283.15 K [kg/m3]	mass density, 293.15 K [kg/m3]	mass density, 298.15 K [kg/m3]	mass density, 303.15 K [kg/m3]	mass density, 313.15 K [kg/m3]	viscosity, 283.15 K [mPa·s]	viscosity, 293.15 K [mPa·s]	viscosity, 298.15 K [mPa·s]	viscosity, 303.15 K [mPa·s]	viscosity, 313.15 K [mPa·s]
x2 = 0	829.6	822.6	819.1	815.6	808.4	10.15	7.026	5.947	5.041	3.802
x2 = 0.1001	828.1	821.1	817.6	814	806.8	8.86	6.256	5.311	4.514	3.446
x2 = 0.2008	826.5	819.5	815.9	812.3	805.1	7.718	5.46	4.679	3.999	3.092
x2 = 0.3009	824.8	817.7	814.1	810.4	803.1	6.653	4.681	4.097	3.523	2.751
x2 = 0.4002	822.8	815.5	811.9	808.2	800.8	5.636	4.015	3.565	3.076	2.438
x2 = 0.5001	819.9	812.5	808.8	805.1	797.5	4.683	3.42	3.037	2.653	2.125
x2 = 0.6002	817.6	810.2	806.4	802.6	794.9	3.765	2.869	2.541	2.237	1.818
x2 = 0.6998	813.8	806.2	802.3	798.4	790.6	3.02	2.378	2.09	1.859	1.536
x2 = 0.8	809.9	802.1	798.1	794.1	786.1	2.4	1.943	1.702	1.523	1.28
x2 = 0.8998	804.3	796.2	792.1	788	779.7	1.851	1.535	1.375	1.222	1.04

CCCCCCCCO [octan-1-ol] + CCO
Settings	mass density, 283.15 K [kg/m3]	mass density, 293.15 K [kg/m3]	mass density, 298.15 K [kg/m3]	mass density, 303.15 K [kg/m3]	mass density, 313.15 K [kg/m3]	viscosity, 283.15 K [mPa·s]	viscosity, 293.15 K [mPa·s]	viscosity, 298.15 K [mPa·s]	viscosity, 303.15 K [mPa·s]	viscosity, 313.15 K [mPa·s]
x2 = 0	832.1	825.2	821.9	818.4	811.4	13.49	9.016	7.39	6.306	4.587
x2 = 0.1001	831.8	824.1	821.3	817.8	810.7	11.57	7.998	6.619	5.68	4.167
x2 = 0.2001	829.4	822.4	818.9	815.4	808.3	9.981	6.997	5.812	5.045	3.739
x2 = 0.3003	827.3	820.6	817	813.4	806.2	8.404	6.004	5.076	4.422	3.316
x2 = 0.3999	825.4	818.2	814.7	811.5	803.7	6.907	5.04	4.357	3.732	2.903
x2 = 0.5004	822.6	815.3	811.7	808.1	800.7	5.63	4.177	3.665	3.22	2.501
x2 = 0.6006	820.1	812.7	809	805.2	797.7	4.488	3.427	3.047	2.677	2.117
x2 = 0.7	816.8	809.3	805.4	801.7	793.9	3.543	2.711	2.445	2.178	1.771
x2 = 0.7999	811.7	803.9	800	796.1	788.1	2.714	2.146	1.958	1.712	1.4
x2 = 0.8998	–	–	–	–	–	2.003	1.593	1.474	1.328	1.112
x2 = 0.9001	805	796.8	792.7	788.6	780.4	–	–	–	–	–
